Results: patent US5741669A, “Insecticidally effective peptides” (FMC Corporation, priority 1995, dated 1998)

B1: NPS-373 (protein)
chain: MKLQLMICLVLLPCFFCEPDEICRARMTNKEFTYKSNVCNGCGDQVAACEAECFRNDVYTACHEAQKG

What was measured:
male Swiss-Webster mice = test: Mammalian toxicity test by injection in mice; format: in vivo; conditions: 30 μg, male Swiss-Webster mice (~30 gm)
Method: (§1) Injection of 30 μg of NPS-326 into the cerebral ventricles (n=3) or peritoneum (n=2) of male Swiss-Webster mice (~30 gm) had no effect. The effects of NPS-331 in mammalian systems were further tested by in vitro rat brain slice electrophysiology. […] The assay is capable of detecting a variety of effects on various mammalian ion channels and neurotransmitter receptors (Dunwiddie, in Electrophysiological Techniques in Pharmacology, Alan R. Liss, Inc., New York (1986), pp. 65-90).

[1] = test system: cabbage looper, Trichoplusia ni (CL); test: Injection bioassay of whole venom and purified toxins in CL larvae; format: in vivo; conditions: T. ni (CL), log-probit analysis
Excerpt: (§2) The insects tested were last instar, laboratory reared larvae of the tobacco budworm, Heliothis virescens (TBW); the beet armyworm, Spodoptera exigua (BAW); the cabbage looper,Trichoplusia ni (CL); the corn earworm, Heliothis (Helicoverpa) zea (CEW); the fall armyworm, Spodoptera frugiperda (FAW); the soybean looper, Pseudoplusia includens (SBL); the European corn borer, Ostrinia nubilalis (ECB); and the diamondback moth, Plutella xylostella (DBM). Adult house flies, Musca domestica (HF) and adult Southern corn rootworm beetles, Diabrotica undecimpunctata (SRC) were also tested. The first six species (TBW, BAW, CL, CEW, FAW, and SBL) are in the family Noctuidae of the order Lepidoptera. O. nubilalis and P. xylostella are lepidopterans in the families Pyralidae and Plutellidae, respectively. […] Whole venom doses were calculated in terms of WVE. […] Doses of components from early fractionations were also calculated in terms of WVE; doses of purified toxins were calculated from ultraviolet absorbances at 280 nm. […]
(§3) Full dose-response assays were carried out in TBW (n=6), BAW (n=6), CL (n=6) and SCR (n=5). […] LD50 values were determined by log-probit analysis basic program for microcomputer. […] Because probit analysis requires two responses that are neither zero nor 100 percent, […] values in several cases had to be estimated rather than calculated directly. […]

[2] = test system: fall armyworm, Spodoptera frugiperda (FAW); test: Two-dose injection assay of toxins in FAW larvae; format: in vivo
Excerpt: as §2, §3

[3] = test system: corn earworm, Heliothis (Helicoverpa) zea (CEW); test: Two-dose injection assay of toxins in CEW larvae; format: in vivo
Excerpt: as §2, §3

[4] = test system: diamondback moth, Plutella xylostella (DBM); test: Injection assay of toxin in DBM larvae; format: in vivo
Excerpt: as §2, §3

[5] = test system: soybean looper, Pseudoplusia includens (SBL); test: Two-dose injection assay of toxins in SBL larvae; format: in vivo
Excerpt: as §2, §3

[6] = test system: European corn borer, Ostrinia nubilalis (ECB); test: Two-dose injection assay of toxins in ECB larvae; format: in vivo
Excerpt: as §2, §3

[7] = test system: beet armyworm, Spodoptera exigua (BAW); test: Injection bioassay of whole venom and purified toxins in BAW larvae; format: in vivo; conditions: S. exigua (BAW), estimate based on 50% mortality at this dose, all other responses 0% or 100%
Excerpt: as §2, §3

[8] = test system: tobacco budworm, Heliothis virescens (TBW); test: Injection bioassay of whole venom and purified toxins in TBW larvae; format: in vivo; conditions: for LD50: H. virescens (TBW), log-probit analysis
Excerpt: The insects tested were last instar, laboratory reared larvae of the tobacco budworm, Heliothis virescens (TBW); the beet armyworm, Spodoptera exigua (BAW); the cabbage looper,Trichoplusia ni (CL); the corn earworm, Heliothis (Helicoverpa) zea (CEW); the fall armyworm, Spodoptera frugiperda (FAW); the soybean looper, Pseudoplusia includens (SBL); the European corn borer, Ostrinia nubilalis (ECB); and the diamondback moth, Plutella xylostella (DBM). Adult house flies, Musca domestica (HF) and adult Southern corn rootworm beetles, Diabrotica undecimpunctata (SRC) were also tested. The first six species (TBW, BAW, CL, CEW, FAW, and SBL) are in the family Noctuidae of the order Lepidoptera. O. nubilalis and P. xylostella are lepidopterans in the families Pyralidae and Plutellidae, respectively. M. domestica and D. undecimpunctata are in the orders Diptera and Coleoptera, respectively. All species tested are important pests in crop production except M. domestica which is a nuisance pest in agricultural and urban settings. All samples, whether whole venom or venom fractions, were prepared in filter-sterilized physiological saline, pH 6.5. Samples were administered by injection into the hemocoel at or near the lateral midline of the fourth abdominal segment; the needle was inserted at a shallow angle to avoid injury to internal organs. Whole venom doses were calculated in terms of WVE. One WVE is the amount of any material which is normally present in one microliter of whole milked venom. Doses of components from early fractionations were also calculated in terms of WVE; doses of purified toxins were calculated from ultraviolet absorbances at 280 nm. Scopes, Anal. Biochem., 59:277 (1974). Control insects were given an equivalent volume of buffered saline solution.
Full dose-response assays were carried out in TBW (n=6), BAW (n=6), CL (n=6) and SCR (n=5). Other species were challenged with one or both toxins in a two-dose assay for purposes of estimating the toxins' activities in a variety of insects. LD50 values were determined by log-probit analysis basic program for microcomputer. Raymond, Set. Ent. med et Parasitol., 22:117 (1985). The insecticidal Tegenaria toxins generally have quite steep dose-response curves; frequently there is less than a 10-fold difference between a 100% lethal dose and a dose causing no mortality. Because probit analysis requires two responses that are neither zero nor 100 percent, […] values in several cases had to be estimated rather than calculated directly. In every case, however, there was an obvious and statistically significant dose response.

[9] = test system: Southern corn rootworm beetles, Diabrotica undecimpunctata (SCR); test: Injection bioassay of toxins in adult Southern corn rootworm beetles; format: in vivo; conditions: D. undecimpunctata (SCR), NPS-326 value estimated (highest dose 100% mortality, rest none)
Excerpt: as §2, §3

[10] = test system: house flies, Musca domestica (HF); test: Injection bioassay of toxins in adult house flies; format: in vivo; conditions: M. domestica (HF), estimate from two-dose assay (100% and 30% mortality; control 10%)
Excerpt: as §2, §3

[11] = test system: rat hippocampal preparation, the Schaffer collateral-CA 1 pyramidal cell synapse; test: In vitro rat brain slice electrophysiology; format: cell-based; conditions: applied at 1 μm
Method: as §1

Molecule	effect of injection into the peritoneum (male Swiss-Webster mice; n=2)	effect of injection into the cerebral ventricles (male Swiss-Webster mice; n=3)	LD50 [1] [nmol/gm]	estimated LD50 [2] [nmol/gm]	estimated LD50 [3] [nmol/gm]	treated larvae developing tremors, spasms and convulsions ([4]; 1.1 nmol/gm, within 24 hours) [%]	estimated LD50 ([4]; DBM larvae) [nmol/gm]	estimated LD50 [5] [nmol/gm]	estimated LD50 [6] [nmol/gm]	LD50 [7] [nmol/gm]	LD50 [8] [nmol/gm]	approximate LD50 ([8]; TBW, venom-derived toxin) [µg/g]	LD50 [9] [nmol/gm]	LD50 [10] [nmol/gm]	effect on evoked synaptic responses [11]	treated larvae paralyzed ([8]; 7.7 μg/g, TBW, n=6) [%]
NPS-326 (EPDEICRARMTHKEFNYKSNVCNGCGDQVAACEAECFRNDVYTACHEAQK)	no effect	no effect	0.78	5.3	0.8	90	< 1.1	1.55	1.1	~0.88	0.89	~5.7	~2.0	–	–	–
NPS-331 (EPDEICRARMTNKEFTYKSNVCNNCGDQVAACEAECFRNDVYTACHEAQK)	–	–	0.22	1.84	1	–	–	1.05	0.64	~0.29	2.6	–	0.57	~0.7	without effect	–
B1	–	–	–	–	–	–	–	–	–	–	–	–	–	–	–	50
